# Measurements as given in article PMC8934569 (Cancer chemotherapy and pharmacology, 2021).
# What was measured:
# [1] = Drug-related adverse events graded by NCI CTCAE version 4.0; type: in vivo, human
# [2] = Veliparib plasma pharmacokinetics; type: in vivo, human
# [3] = Group 2 N=22: veliparib Days 1-4 + AC Day 3
# [4] = Groups 3 and 4 N=27: veliparib Days 1-7 or 1-14 + AC Day 1
smiles,measurement,setting,value
"C[C@]1(c2nc3c(C(N)=O)cccc3[nH]2)CCCN1 [veliparib, 2-[(R)-2-methylpyrrolidin-2-yl]-1H-benzimidazole-4-carboxamide]","Dehydration, Gr 4",[1]; [3],0 (0) n (%)
same,"Fatigue, All Grades",[1]; [3],16 (73) n (%)
same,"Fatigue, Gr 3",[1]; [3],0 (0) n (%)
same,"Fatigue, Gr 4",[1]; [3],0 (0) n (%)
same,"Febrile neutropenia, All Grades",[1]; [3],3 (14) n (%)
same,"Febrile neutropenia, Gr 3",[1]; [3],2 (9) n (%)
same,"Febrile neutropenia, Gr 4",[1]; [3],2 (9) n (%)
same,"Hyponatremia, All Grades",[1]; [3],1 (5) n (%)
same,"Hyponatremia, Gr 3",[1]; [3],1 (5) n (%)
same,"Hyponatremia, Gr 4",[1]; [3],0 (0) n (%)
same,"Hypophosphatemia, All Grades",[1]; [3],0 (0) n (%)
same,"Hypophosphatemia, Gr 3",[1]; [3],0 (0) n (%)
same,"Hypophosphatemia, Gr 4",[1]; [3],0 (0) n (%)
same,"Hypotension, All Grades",[1]; [3],0 (0) n (%)
same,"Hypotension, Gr 3",[1]; [3],0 (0) n (%)
same,"Hypotension, Gr 4",[1]; [3],0 (0) n (%)
same,"Lymphocyte count decreased, All Grades",[1]; [3],13 (59) n (%)
same,"Lymphocyte count decreased, Gr 3",[1]; [3],10 (45) n (%)
same,"Lymphocyte count decreased, Gr 4",[1]; [3],2 (9) n (%)
same,"Nausea, All Grades",[1]; [3],10 (45) n (%)
same,"Nausea, Gr 3",[1]; [3],0 (0) n (%)
same,"Nausea, Gr 4",[1]; [3],0 (0) n (%)
same,"Neutrophil count decreased, All Grades",[1]; [3],19 (86) n (%)
same,"Neutrophil count decreased, Gr 3",[1]; [3],10 (45) n (%)
same,"Neutrophil count decreased, Gr 4",[1]; [3],13 (59) n (%)
same,"Platelet count decreased, All Grades",[1]; [3],14 (64) n (%)
same,"Platelet count decreased, Gr 3",[1]; [3],4 (18) n (%)
same,"Platelet count decreased, Gr 4",[1]; [3],2 (9) n (%)
same,"Sepsis, All Grades",[1]; [3],1 (5) n (%)
same,"Sepsis, Gr 3",[1]; [3],0 (0) n (%)
same,"Sepsis, Gr 4",[1]; [3],1 (5) n (%)
same,"Vomiting, All Grades",[1]; [3],3 (14) n (%)
same,"Vomiting, Gr 3",[1]; [3],0 (0) n (%)
same,"Vomiting, Gr 4",[1]; [3],0 (0) n (%)
same,"White blood cell decreased, All Grades",[1]; [3],21 (95) n (%)
same,"White blood cell decreased, Gr 3",[1]; [3],11 (50) n (%)
same,"White blood cell decreased, Gr 4",[1]; [3],14 (64) n (%)
same,"Anemia, All Grades",[1]; [4],18 (67) n (%)
same,"Anemia, Gr 3",[1]; [4],11 (41) n (%)
same,"Anemia, Gr 4",[1]; [4],1 (4) n (%)
same,"Anorexia, All Grades",[1]; [4],0 (0) n (%)
same,"Anorexia, Gr 3",[1]; [4],0 (0) n (%)
same,"Anorexia, Gr 4",[1]; [4],0 (0) n (%)
same,"Dehydration, All Grades",[1]; [4],0 (0) n (%)
same,"Dehydration, Gr 3",[1]; [4],0 (0) n (%)
same,"Dehydration, Gr 4",[1]; [4],0 (0) n (%)
same,"Fatigue, All Grades",[1]; [4],4 (15) n (%)
same,"Fatigue, Gr 3",[1]; [4],0 (0) n (%)
same,"Fatigue, Gr 4",[1]; [4],0 (0) n (%)
same,"Febrile neutropenia, All Grades",[1]; [4],3 (11) n (%)
same,"Febrile neutropenia, Gr 3",[1]; [4],3 (11) n (%)
same,"Febrile neutropenia, Gr 4",[1]; [4],0 (0) n (%)
same,"Hyponatremia, All Grades",[1]; [4],0 (0) n (%)
same,"Hyponatremia, Gr 3",[1]; [4],0 (0) n (%)
same,"Hyponatremia, Gr 4",[1]; [4],0 (0) n (%)
same,"Hypophosphatemia, All Grades",[1]; [4],0 (0) n (%)
same,"Hypophosphatemia, Gr 3",[1]; [4],0 (0) n (%)
same,"Hypophosphatemia, Gr 4",[1]; [4],0 (0) n (%)
same,"Hypotension, All Grades",[1]; [4],0 (0) n (%)
same,"Hypotension, Gr 3",[1]; [4],0 (0) n (%)
same,"Hypotension, Gr 4",[1]; [4],0 (0) n (%)
same,"Lymphocyte count decreased, All Grades",[1]; [4],25 (93) n (%)
same,"Lymphocyte count decreased, Gr 3",[1]; [4],23 (85) n (%)
same,"Nausea, All Grades",[1]; [4],6 (22) n (%)
same,"Nausea, Gr 3",[1]; [4],0 (0) n (%)
same,"Nausea, Gr 4",[1]; [4],0 (0) n (%)
same,"Neutrophil count decreased, All Grades",[1]; [4],21 (78) n (%)
same,"Neutrophil count decreased, Gr 4",[1]; [4],19 (70) n (%)
same,"Platelet count decreased, All Grades",[1]; [4],19 (70) n (%)
same,"Platelet count decreased, Gr 3",[1]; [4],7 (26) n (%)
same,"Platelet count decreased, Gr 4",[1]; [4],6 (22) n (%)
same,"Sepsis, All Grades",[1]; [4],0 (0) n (%)
same,"Sepsis, Gr 3",[1]; [4],0 (0) n (%)
same,"Sepsis, Gr 4",[1]; [4],0 (0) n (%)
same,"Vomiting, All Grades",[1]; [4],4 (15) n (%)
same,"Vomiting, Gr 3",[1]; [4],0 (0) n (%)
same,"Vomiting, Gr 4",[1]; [4],0 (0) n (%)
same,"White blood cell decreased, All Grades",[1]; [4],24 (89) n (%)
same,"White blood cell decreased, Gr 3",[1]; [4],21 (78) n (%)
same,"White blood cell decreased, Gr 4",[1]; [4],14 (52) n (%)
same,Patients given growth factor support after cycle 1,[1]; across the whole trial (n=22 of 80),28%
same,Patients requiring a dose reduction of veliparib,"[1]; overall, 80 patients enrolled",23 patients
same,AUC0-7 on C1D3 (with combination therapy) compared to C1D1 (alone),[2]; Groups 1 and 2,significantly higher
same,Cmax on C1D3 (with combination therapy) compared to C1D1 (alone),[2]; Groups 1 and 2,comparable
same,Dose proportionality of Cmax and AUC0-7,"[2]; veliparib administered alone, 50 to 200 mg dose range, C1D1",approximately dose-proportional increases
